# Laboratory results taken from patent US8530493B2, “Indolopyridines as Eg5 kinesin modulators” (4SC AG, priority 2006, dated 2013).
# System: RKO p21 uninduced (proliferating) colon adenocarcinoma cells
# Experiment: Alamar Blue cell viability assay, RKO p21 uninduced (proliferating)
# Type: cell-based
# Conditions: Homo sapiens, Table B3, anti-proliferative/cytotoxic activity, 72 hours, read-out: −log EC50 RKO p21 uninduced (proliferating) (converted)
# How it was run: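 RKO p21 or p27 subclones grown without Ponasterone A, i.e. proliferating, exposed 24 h after seeding to semi-log compound dilutions in DMEM/10% FCS (1% DMSO controls) for 72 h at 37° C. Alamar Blue fluorescence (544/590 nm) read relative to untreated cells; EC50 from dose-response curves, given as −log EC50 (mol/l).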
row,SMILES,EC50
1,"CN1CCN(CCCN2C(=O)N3[C@H](c4cccc(O)c4)c4[nH]c5cc(F)c(Cl)cc5c4C[C@@]3(C)C2=O)CC1 (racemic) [Example 481, (3aSR,10RS)-6-Chloro-7-fluoro-10-(3-hydroxy-phenyl)-3a-methyl-2-[3-(4-methyl-piperazin-1-yl)-propyl]-3a,4,9,10-tetrahydro-2,9,10a-triaza-cyclopenta[b]fluorene-1,3-dione]",39.8 to 251 nM
2,"CCOc1ccc2[nH]c3c(c2c1)C[C@@]1(C)C(=O)N(CCCN2CCC(C)CC2)C(=O)N1[C@@H]3c1cccc(O)c1 (racemic) [Example 224, (3aSR,10RS)-6-Ethoxy-10-(3-hydroxy-phenyl)-3a-methyl-2-[3-(4-methyl-piperidin-1-yl)-propyl]-3a,4,9,10-tetrahydro-2,9,10a-triaza-cyclopenta[b]fluorene-1,3-dione]",39.8 to 251 nM
3,"CC(C)N(C)CCCN1C(=O)N2[C@H](c3cccc(O)c3)c3[nH]c4ccc(OC(F)F)cc4c3C[C@@]2(C)C1=O (racemic) [Example 179, (3aSR,10RS)-6-(1,1-Difluoro-methoxy)-10-(3-hydroxy-phenyl)-2-[3-(isopropyl-methyl-amino)-propyl]-3a-methyl-3a,4,9,10-tetarhydro-2,9,10a-triaza-cyclopenta[b]fluorene-1,3-dione]",≤ 39.8 nM
4,"COc1cc2c3c([nH]c2cc1F)[C@@H](c1cccc(O)c1)N1C(=O)N(CCN(C)C)C(=O)[C@]1(C)C3 (racemic) [Example 255, (3aSR,10RS)-2-(2-Dimethylamino-ethyl)-7-fluoro-10-(3-hydroxy-phenyl)-6-methoxy-3a-methyl-3a,4,9,10-tetrahydro-2,9,10a-triaza-cyclopenta[b]fluorene-1,3-dione]",39.8 to 251 nM
5,"C[C@@]12Cc3c([nH]c4cc(F)c(Cl)cc34)[C@@H](c3cccc(O)c3)N1C(=O)N(CCCNC1CCC1)C2=O (racemic) [Example 463, (3aSR,10RS)-6-Chloro-2-(3-cyclobutylamino-propyl)-7-fluoro-10-(3-hydroxy-phenyl)-3a-methyl-3a,4,9,10-tetrahydro-2,9,10a-triaza-cyclopenta[b]fluorene-1,3-dione]",39.8 to 251 nM
6,"CCOc1ccc2[nH]c3c(c2c1)C[C@@]1(C)C(=O)N(CCCNC2CC2)C(=O)N1[C@@H]3c1cccc(O)c1 (racemic) [Example 190, (3aSR,10RS)-2-(3-Cyclopropylamino-propyl)-6-ethoxy-10-(3-hydroxy-phenyl)-3a-methyl-3a,4,9,10-tetrahydro-2,9,10a-triaza-cyclopenta[b]fluorene-1,3-dione]",39.8 to 251 nM
7,"COc1ccc2[nH]c3c(c2c1)C[C@@]1(C)C(=O)N(CCCN2CCN(C(C)=O)CC2)C(=O)N1[C@@H]3c1cccc(O)c1 (racemic) [Example 151, (3aSR,10RS)-2-[3-(4-Acetyl-piperazin-1-yl)-propyl]-10-(3-hydroxy-phenyl)-6-methoxy-3a-methyl-3a,4,9,10-tetrahydro-2,9,10a-triaza-cyclopenta[b]fluorene-1,3-dione]",39.8 to 251 nM
8,"COc1cc2c3c([nH]c2cc1F)[C@@H](c1cccc(O)c1)N1C(=O)N(CCCN(C)CCO)C(=O)[C@]1(C)C3 (racemic) [Example 312, (3aSR,10RS)-7-Fluoro-2-{3-[(2-hydroxy-ethyl)-methyl-amino]-propyl}-10-(3-hydroyx-phenyl)-6-methoxy-3a-methyl-3a,4,9,10-tetrahydro-2,9,10a-triaza-cyclopenta[b]fluorene-1,3-dione]",39.8 to 251 nM
9,"CC(=O)N1CCN(CCN2C(=O)N3[C@H](c4cccc(O)c4)c4[nH]c5cc(F)c(Cl)cc5c4C[C@@]3(C)C2=O)CC1 (racemic) [Example 360, (3aSR,10RS)-2-[2-(4-Acetyl-piperazin-1-yl)-ethyl]-6-chloro-7-fluoro-10-(3-hydroxy-phenyl)-3a-methyl-3a,4,9,10-tetrahydro-2,9,10a-triaza-cyclopenta[b]fluorene-1,3-dione]",39.8 to 251 nM
10,"COc1cc2c3c([nH]c2cc1F)[C@@H](c1cccc(O)c1)N1C(=O)N(CCCN2CCCCC2)C(=O)[C@]1(C)C3 (racemic) [Example 324, (3aSR,10RS)-7-Fluoro-10-(3-hydroxy-phenyl)-6-methoxy-3a-methyl-2-(3-piperidin-1-yl-propyl)-3a,4,9,10-tetrahydro-2,9,10a-triaza-cyclopenta[b]fluorene-1,3-dione]",39.8 to 251 nM
11,"C[C@@]12Cc3c([nH]c4cc(F)c(Cl)cc34)[C@@H](c3cccc(O)c3)N1C(=O)N(CCCN1CCOCC1)C2=O (racemic) [Example 475, (3aSR,10RS)-6-Chloro-7-fluoro-10-(3-hydroxy-phenyl)-3a-methyl-2-(3-morpholin-4-yl-propyl)-3a,4,9,10-tetrahydro-2,9,10a-triaza-cyclopenta[b]fluorene-1,3-dione]",39.8 to 251 nM
12,"C[C@@]12Cc3c([nH]c4cc(F)c(Cl)cc34)[C@@H](c3cccc(O)c3)N1C(=O)N(CCNCC1CC1)C2=O (racemic) [Example 341, (3aSR,10RS)-6-Chloro-2-[2-(cyclopropylmethyl-amino)-ethyl]-7-fluoro-10-(3-hydroxy-phenyl)-3a-methyl-3a,4,9,10-tetrahydro-2,9,10a-triaza-cyclopenta[b]fluorene-1,3-dione]",≤ 39.8 nM
13,"CCNCCCN1C(=O)N2[C@H](c3cccc(O)c3)c3[nH]c4ccc(Br)cc4c3C[C@@]2(C)C1=O (racemic) [Example 212, (3aSR,10RS)-6-Bromo-2-(3-ethylamino-propyl)-10-(3-hydroxy-phenyl)-3a-methyl-3a,4,9,10-tetrahydro-2,9,10a-triaza-cyclopenta[b]fluorene-1,3-dione]",≤ 39.8 nM
14,"CCOc1ccc2[nH]c3c(c2c1)C[C@@]1(C)C(=O)N(CCN(CC)CCO)C(=O)N1[C@@H]3c1cccc(O)c1 (racemic) [Example 298, (3aSR,10RS)-6-Ethoxy-2-{2-[ethyl-(2-hydroxy-ethyl)-amino]-ethyl}-10-(3-hydroxy-phenyl)-3a-methyl-3a,4,9,10-tetrahydro-2,9,10a-triaza-cyclopenta[b]fluorene-1,3-dione]",39.8 to 251 nM
15,"CCOc1ccc2[nH]c3c(c2c1)C[C@@]1(C)C(=O)N(CCNC(C)(C)C)C(=O)N1[C@@H]3c1cccc(O)c1 (racemic) [Example 156, (3aSR,10RS)-2-(2-tert-Butylamino-ethyl)-6-ethoxy-10-(3-hydroxy-phenyl)-3a-methyl-3a,4,9,10-tetrahydro-2,9,10a-triaza-cyclopenta[b]fluorene-1,3-dione]",≤ 39.8 nM
16,"CCN(CCO)CCCN1C(=O)N2[C@H](c3cccc(O)c3)c3[nH]c4ccc(OC(F)F)cc4c3C[C@@]2(C)C1=O (racemic) [Example 177, (3aSR,10RS)-6-(1,1-Difluoro-methoxy)-2-{3-[ethyl-(2-hydroxy-ethyl)-amino]-propyl}-10-(3-hydroxy-phenyl)-3a-methyl-3a,4,9,10-tetrahydro-2,9,10a-triaza-cyclopenta[b]fluorene-1,3-dione]",≤ 39.8 nM
17,"CC(C)(C)NCCN1C(=O)N2[C@H](c3cccc(O)c3)c3[nH]c4cc(F)c(Cl)cc4c3C[C@@]2(C)C1=O (racemic) [Example 345, (3aSR,10RS)-2-(2-tert-Butylamino-ethyl)-6-chloro-7-fluoro-10-(3-hydroxy-phenyl)-3a-methyl-3a,4,9,10-tetrahydro-2,9,10a-triaza-cyclopenta[b]fluorene-1,3-dione]",≤ 39.8 nM
18,"CCN(CCO)CCCN1C(=O)N2[C@H](c3cccc(O)c3)c3[nH]c4ccc(Br)cc4c3C[C@@]2(C)C1=O (racemic) [Example 231, (3aSR,10RS)-6-Bromo-2-{3-[ethyl-(2-hydroxy-ethyl)-amino]-propyl}-10-(3-hydroyx-phenyl)-3a-methyl-3a,4,9,10-tetrahydro-2,9,10a-triaza-cyclopenta[b]fluorene-1,3-dione]",≤ 39.8 nM
19,"C[C@@]12Cc3c([nH]c4cc(F)c(Cl)cc34)[C@@H](c3cccc(O)c3)N1C(=O)N(CCCN1CC=CCC1)C2=O (racemic) [Example 480, (3aSR,10RS)-6-Chloro-2-[3-(3,6-dihydro-2H-pyridin-1-yl)-propyl]-7-fluoro-10-(3-hydroxy-phenyl)-3a-methyl-3a,4,9,10-tetrahydro-2,9,10a-triaza-cyclopenta[b]fluorene-1,3-dione]",39.8 to 251 nM
20,"C[C@@]12Cc3c([nH]c4ccc(Cl)cc34)[C@@H](c3cccc(O)c3)N1C(=O)N(CCCN1CCOCC1)C2=O (racemic) [Example 171, (3aSR,10RS)-6-Chloro-10-(3-hydroxy-phenyl)-3a-methyl-2-(3-morpholin-4-yl-propyl)-3a,4,9,10-tetrahydro-2,9,10a-triaza-cyclopenta[b]fluorene-1,3-dione]",≤ 39.8 nM
21,"CC(C)CNCCCN1C(=O)N2[C@H](c3cccc(O)c3)c3[nH]c4cc(F)c(Cl)cc4c3C[C@@]2(C)C1=O (racemic) [Example 459, (3aSR,10RS)-6-Chloro-7-fluoro-10-(3-hydroxy-phenyl)-2-(3-isobutylamino-propyl)-3a-methyl-3a,4,9,10-tetrahydro-2,9,10a-triaza-cyclopenta[b]fluorene-1,3-dione]",39.8 to 251 nM
22,"CC(=O)N1CCN(CCN2C(=O)N3[C@H](c4cccc(O)c4)c4[nH]c5ccc(Br)cc5c4C[C@@]3(C)C2=O)CC1 (racemic) [Example 387, (3aSR,10RS)-2-[2-(4-Acetyl-piperazin-1-yl)-ethyl]-6-bromo-10-(3-hydroxy-phenyl)-3a-methyl-3a,4,9,10-tetrahydro-2,9,10a-triaza-cyclopenta[b]fluorene-1,3-dione]",≤ 39.8 nM
23,"COCCNCCN1C(=O)N2[C@H](c3cccc(O)c3)c3[nH]c4cc(F)c(OC)cc4c3C[C@@]2(C)C1=O (racemic) [Example 253, (3aSR,10RS)-7-Fluoro-10-(3-hydroxy-phenyl)-6-methoxy-2-[2-(2-methoxy-ethylamino)-ethyl]-3a-methyl-3a,4,9,10-tetrahydro-2,9,10a-triaza-cyclopenta[b]fluorene-1,3-dione]",39.8 to 251 nM
